Legend:
Type in all cases: in vivo
[1] = tested on: Phytophthora cinnamomi; assay: Example 1: soil treatment of boxwoods inoculated with P. cinnamomi; conditions: boxwood; for Marketability: 1(dead)-5(excellent) Scale: G41 8 oz, mefenoxam 1 oz/100 gal, mean of 10
Experimental: (§1) Except for the non-inoculated controls, each plant was treated with P. cinnamomi inoculum to induce disease. Boxwood plants were obtained from a local nursery and placed into a 6 inch diameter pot containing pine bark: peat (3:1 volume:volume) potting media. The medium was amended with 14 lb of 17-7-12 Osmocote fertilizer per cubic yard of mix.
(§2) Inoculum of P. cinnamomi was grown on sterilized rice grains for 14 days at 24-26° C. prior to inoculation. To treat the plants with the pathogen inoculum, four holes were punched equidistant around the root ball, and four colonized rice grains were inserted in each hole. Each of the test materials was applied at the specified rate to the soil surface, using a 2.5 pint hand held sprayer. The chemical standard, mefenoxam (Subdue®), was applied to the soil surface 24 hours after the plant roots were inoculated with P. cinnamomi inoculum. T22 and G41 were applied to the soil surface 72 hours prior to root inoculation with P. cinnamomi.
(§3) A marketability rating was determined for each plant at one day after inoculation (DAI) with P. cinnamomi, 22 days DAI, and 54 days DAI. Using the following scale, each plant was rated by three researchers and the mean value was determined for each plant: • 1: Dead plants • 2: Poor, unsalable (severe chlorosis and poor top growth) • 3: Moderate, salable (slight chlorosis and/or stunting; plant growth between 2 and 4) • 4: Salable (few individual leaves with chlorosis, green foliage; plant growth between 3 and 5) • 5: Excellent health, salable (no chlorosis; optimum top growth)
(§4) At 1, 22, and 54 DAI, plant height was measured from the crown to the highest point of the plant. Dry root weight and fresh shoot weight were determined at 22 and 54 DAI.
(§5) At 22 DAI, a subset of plants from each treatment were removed and examined. Plants were removed from the pots, and excess soil was carefully brushed from the roots. Above ground portions (shoots) were cut away from the below ground portions and dried in an oven. Dry root weights and fresh shoot weights were recorded. At 54 DAI, the experiment was terminated; the remaining plants were treated as above to determine dry root and shoot weights. Data were subjected to analysis of variance and treatment means were separated by Student-Newman-Keuls test at P=0.05.

[2] = tested on: Phytophthora cinnamomi; assay: Example 2: spray treatment of boxwoods challenged with Phytophthora cinnamomi; conditions: boxwood, P. cinnamomi; for Dry Root Weight / Fresh Shoot Weight: mean of 5; for Marketability: 1(dead)-5(excellent) Scale: G41 4 oz, T22 4 oz, mefenoxam 1 oz/100 gal; for Marketability: 1(dead)-5(excellent) Scale / Height: mean of 10
Experimental: as §1, §2, §3, §4, §5
Except for the non-inoculated controls, each plant was treated with P. cinnamomi inoculum to induce disease. The methodology for this test was identical to that described in Example 1.

[3] = tested on: Phytophthora nicotianae; assay: Example 3: spray treatment of azaleas challenged with Phytophthora nicotianae; conditions: azalea, P. nicotianae; for Dry Root Weight / Fresh Shoot Weight: mean of 5; for Marketability: 1(dead)-5(excellent) Scale: G41 4 oz, T22 4 oz, mefenoxam 1 oz/100 gal; for Marketability: 1(dead)-5(excellent) Scale / Height: mean of 10
Experimental: as §2, §3, §4, §5
Except for the non-inoculated controls, each plant was treated with P. nicotianae inoculum to induce disease. The methodology for this test was identical to that described in Example 1.

[4] = tested on: Fusarium oxysporum f. sp. lycopersici; assay: Example 4: soil drench of tomato seedlings challenged with Fusarium oxysporum; conditions: 28 DAI, biologicals 4 oz, mefenoxam 1 oz/100 gal, mean of 28 plants
Experimental: (§6) Tomato, Lycopersicon esculentum, var esculentum ‘Beefsteak’, seedlings were subjected to the soil drench treatments set forth in Table 13. Except for the non-inoculated controls, each plant was treated with inoculum of the pathogen F. oxysporum f. sp. lycopersici to induce disease.
(§7) Tomatoes were started in 128-cell flats from seeds in a general purpose, peat-based growing medium. Plants were watered with a 100 ppm solution of 20-20-20 water-soluble plant food (Jack's Classic). At 4-5 days after planting, the seedlings were drenched with the biological materials mixed in water. Seedlings not receiving treatments at this time were treated only with the blank formulation (without Trichoderma).
(§8) Inoculum of F. oxysporum was grown on sterilized rice grains for 7 days at 24-26° C. The rice was uniformly blended into growing medium at a rate of 5% (weight: weight). Seven day old tomato seedlings were transplanted into 4 inch pots that contained the pathogen inoculum on rice. A set of untreated control seedlings were transplanted into pots containing the growing medium plus uninoculated rice. […]
Plants were maintained in a growing room at 20-24° C. under a 12 hour light: dark cycle. […] The material was dried in an oven at 60° C. until completely dry (approximately 24 hours) and the weights recorded. […] Significant differences between treatment means were determined using Tukey's HSD test at P=0.05.

[5] = tested on: Pythium irregulare; assay: Example 5: soil drench of tomato seedlings challenged with Pythium irregulare; conditions: 21 DAI, biologicals 4 oz, mefenoxam 1 oz/100 gal, mean of 28 plants
Experimental: Tomato, Lycopersicon esculentum, var esculentum ‘Beefsteak’, seedlings were subjected to the soil drench treatments set forth in Table 13. Except for the non-inoculated controls, each plant was treated with inoculum of the pathogen Pythium irregulare to induce disease.
Tomato seedlings were grown and treated as described above in Example 2. Sterile rice was inoculated with a suspension of P. irregulare at the rate of 1 colonized PDA Petri plate/1 liter of sterile water. Rice was incubated for 24 hours at 24-26° C. Infested rice was uniformly blended into the growing medium at a rate of 5% (weight: weight).
Tomato seedlings were transplanted into 4 inch pots that contained the pathogen inoculum on rice. A set of untreated control seedlings were transplanted into pots containing the growing medium plus rice, but no pathogen. A set of seedlings was drenched with the label rate of mefenoxam to serve as the chemical standard and a set of treated control seedlings was transplanted into medium containing the pathogen.
Plants were maintained in a growing room at 20-24° C. under a 12 hour light: dark cycle. Plants were watered with a nutrient solution as described above. […] The material was dried in an oven until completely dry (approximately 24 hours) and the weights recorded.

[6] = tested on: Pythium aphanidermatum; assay: Example 6: cucumber seed coating against Pythium aphanidermatum damping-off; conditions: P. aphanidermatum inoculum, greenhouse
Experimental: Cucumber, Cucumis sativus, var Marketmore 76 seeds were coated with T harzianum and/or T. virens, or mefenoxam as described by Pill et al. (Pill et. al., Scientia Horticulturae 121:54-62 (2009), which is hereby incorporated by reference in its entirety). Seeds were planted into flats with or without P. aphanidermatum inoculum. The experiment was conducted in a greenhouse with natural lighting and temperature settings of 25/22° C. (day/night). The numbers of seedlings emerged were recorded daily until there was no increase for two consecutive days. Diseased plants were recorded as either pre- (no seedling emergence) or post-emergent (shoot lodging).

[7] = tested on: Rhizoctonia solani; assay: Example 7: soil drench of tomato seedlings challenged with Rhizoctonia solani; conditions: R. solani, 23 DAI, biologicals 4 oz, mefenoxam 1 oz/100 gal, mean of 28 plants
Experimental: Tomato, Lycopersicon esculentum, var esculentum ‘Beefsteak’, seedlings were subjected to the soil drench treatments set forth in Table 13, except that there were no untreated control plants. Except for the non-inoculated controls, each plant was treated with inoculum of the pathogen R. solani to induce disease.
Tomato seedlings were grown and treated as described above in Example 2. Sterile rice was inoculated with agar plugs from PDA Petri plates containing growing colonies of R. solani at a rate of one colonized PDA plate/500 g rice. Rice was incubated for 10 days at 24-26° C. Infested rice was uniformly blended into the growing medium at a rate of 5% (weight: weight).
Tomato seedlings were transplanted into 4 inch pots that contained the pathogen inoculum on rice. The untreated check plants became contaminated with an unknown disease and were not included in the analysis. A set of seedlings was drenched with the label rate of mefenoxam to serve as the chemical standard and a set of treated control seedlings was transplanted into medium containing the pathogen.
Plants were maintained in a growing room at 20-24° C. under a 12 hour light: dark cycle. Plants were watered with a nutrient solution as described above. […] The material was dried in an oven at 60° C. until completely dry (approximately 24 hours) and the weights recorded. Data were analyzed as described in Example 2, above.

[8] = tested on: Pythium irregulare; assay: Example 8 Experiment 1: soil drench of cucumber seedlings challenged with Pythium irregulare (T22 and G21); conditions: 28 DAI, biologicals 4 oz, mefenoxam 1 oz/100 gal, mean of 14 plants
Experimental: Except for the non-inoculated controls, each plant was treated with inoculum of the pathogen Pythium irregulare to induce disease.
Seedlings were grown and treated as described in Example 4. Sterile rice was inoculated with a suspension of P. irregulare at the rate of one colonized PDA Petri plate/1 liter of sterile water. Rice was incubated for 24 hours at 24-26° C. Infested rice was uniformly blended into the growing medium at a rate of 5% (weight: weight).
Cucumber seedlings were transplanted into 4 inch pots that contained the pathogen inoculum on rice. A set of untreated control seedlings were transplanted into pots containing the growing medium plus rice, but no pathogen. A set of seedlings was drenched with the label rate of mefenoxam to serve as the chemical standard and a set of treated control seedlings was transplanted into medium containing the pathogen.
Plants were maintained in a growing room at 20-24° C. under a 12 hour light: dark cycle. At 28 DAI, the experiment was terminated, and the plants were each separated into two parts: root (below ground) and shoot (above ground). The material was dried in an oven at 60° C. until completely dry (approximately 24 hours) and the weights recorded. Data were analyzed as described in Example 4.

[9] = tested on: Fusarium oxysporum f. sp. lycopersici; assay: Example 8 Experiment 2: soil drench of tomato seedlings challenged with Fusarium oxysporum (T12 and G41); conditions: 28 DAI, biologicals 4 oz, mefenoxam 1 oz/100 gal, mean of 14 plants
Experimental: as §6, §7, §8
Plants were maintained in a growing room at 20-24° C. under a 12 hour light: dark cycle. […] The material was dried in an oven at 60° C. until completely dry (approximately 24 hours) and the weights recorded. […] Significant differences between treatment means were determined using Tukey's HSD test at P=0.05. […]

COCC(=O)N(c1c(C)cccc1C)[C@H](C)C(=O)OC [Mefenoxam, mefenoxam]
Marketability: 1(dead)-5(excellent) Scale ([1]; 5/26, T22 4 oz): 5 a
Height ([1]; 5/26, mean of 10): 13.8 a cm
Marketability: 1(dead)-5(excellent) Scale ([1]; 6/21, T22 4 oz): 4.4 a
Dry Root Weight ([1]; 6/21, mean of 5): 16.7 a g
Fresh Shoot Weight ([1]; 6/21, mean of 5): 86.2 a g
Height ([1]; 6/21, mean of 10): 39.7 a cm
Marketability: 1(dead)-5(excellent) Scale ([1]; 7/10, T22 4 oz): 4.7 a
Dry Root Weight ([1]; 7/10, mean of 5): 30.1 a g
Fresh Shoot Weight ([1]; 7/10, mean of 5): 108.3 a g
Height ([1]; 7/10, mean of 10): 39.8 a cm
Dry Root Weight ([2]; 1/13): 96.0 ab g
Fresh Shoot Weight ([2]; 1/13): 81.6 a g
Dry Root Weight ([2]; 12/12): 76.4 a g
Fresh Shoot Weight ([2]; 12/12): 64.8 a g
Marketability: 1(dead)-5(excellent) Scale ([2]; Dec. 12, 2004): 4.6 a
Height ([2]; Dec. 12, 2004): 34.6 ab cm
Marketability: 1(dead)-5(excellent) Scale ([2]; Jan. 13, 2005): 4.7 ab
Height ([2]; Jan. 13, 2005): 36.7 ab cm
Marketability: 1(dead)-5(excellent) Scale ([2]; Nov. 21, 2004): 5.0 a
Height ([2]; Nov. 21, 2004): 13.3 ab cm
Dry Root Weight ([3]; 6/21): 44.2 a g
Fresh Shoot Weight ([3]; 6/21): 49.0 ab g
Dry Root Weight ([3]; 7/10): 55.5 ab g
Fresh Shoot Weight ([3]; 7/10): 70.3 ab g
Marketability: 1(dead)-5(excellent) Scale ([3]; Dec. 17, 2004): 4.4 ab
Height ([3]; Dec. 17, 2004): 27.5 ab cm
Marketability: 1(dead)-5(excellent) Scale ([3]; Jan. 6, 2005): 4.4 ab
Height ([3]; Jan. 6, 2005): 35.5 ab cm
Marketability: 1(dead)-5(excellent) Scale ([3]; Nov. 25, 2004): 5 a
Height ([3]; Nov. 25, 2004): 13.7 a cm
Dry Root Weight [4]: 0.12 bc g
Dry Shoot Weight [4]: 0.90 bc g
Dry Root Weight [5]: 0.04 c g
Dry Shoot Weight [5]: 0.28 g·days
Percent Damping-Off, Pre-emergence [6]: 4.6 bc Percent
Percent Damping-Off, Total [6]: 9.3 c Percent
Dry Root Weight [7]: 0.06 b g
Dry Shoot Weight [7]: 0.42 c g
Dry Root Weight [8]: 0.10 abc g
Dry Shoot Weight [8]: 0.66 ab g
Dry Root Weight [9]: 0.03 b g
Dry Shoot Weight [9]: 0.17 c g

From patent US9681668B2, “Control of plant diseases and enhancing plant growth using a combination of a Trichoderma virens species and a rhizosphere competent Trichoderma harzianum species” (priority 2008, dated 2017)
